For one compound, binding results are on record in publication PMC10786036 (2023).

The subject of assay [1] is c-MYC (DNA, G4) TGAGGGTGGGTAGGGTGGGTAA
Description: fluorescence lifetime. The following applies: 100 mM LiCl; 10 mM Tris-HCl pH 7.4; lifetime 1.3 ns lower than in K+.

Assay [2] has as its system TRF2 (RNA, G4) CGGGAGGGCGGGGAGGGC
Description: fluorescence lifetime. The conditions noted are these: 100 mM KCl; 10 mM Tris-HCl pH 7.4; 2 µM TOR-G4; lifetime rises with G4 RNA in totRNA.

For `COc1ccc2c(c1)N(C)C(=Cc1cc(/C=C/c3ccc(N(C)C)cc3)[n+](C)c3ccccc13)S2`, the binding result in assay [1] and in assay [2] was “yes” throughout.
